Test results published in PMC5988308, “Rhodanine derivatives as potent anti-HIV and anti-HSV microbicides” (PLoS ONE, 2018).
Converted amounts (≈) assume the structure as drawn. Read-outs that look alike come from different tables or passages of the source.

Legend:
[1] = Parallel Artificial Membrane Permeability Assay (PAMPA); type: in vitro ADME; settings: pH 7.4, 5 h
Procedure: Donor solution (0.5 mM) was prepared by diluting 1 mM dimethylsulfoxide (DMSO) compound stock solution using phosphate buffer (pH 7.4, 0.025 M). Filters were coated with 5 μL of a 1% (w/v) dodecane solution of L-α-phosphatidylcholine. Donor solution (150 μL) was added to each well of the filter plate. To each well of the acceptor plate were added 300 μL of solution (50% DMSO in phosphate buffer). All compounds were tested in three different plates on different days. The sandwich was incubated for 5 h at room temperature under gentle shaking. After the incubation time, the plates were separated, and samples were taken from both receiver and donor sides and analyzed using UV/HPLC-MS gradient method above reported. Permeability (Papp) for PAMPA, were calculated according to the following equation, obtained from Wohnsland and Faller and Sugano [37] equation with some modification in order to obtain permeability values in cm s-1, Papp=VDVA/(VD+VA)At−ln(1−r) where VA is the volume in the acceptor well, VD is the volume in the donor well (cm^3), A is the “effective area” of the membrane (cm^2), t is the incubation time (s) and r the ratio between drug concentration in the acceptor and equilibrium concentration of the drug in the total volume (VD+VA). Drug concentration is estimated by using the peak area integration.

[2] = Cytotoxicity on TZM-bl cells (XTT test); type: cell-based; settings: human, read-out: Citotoxicity (TZM-bl cells) CC50
Procedure: (§1) The human TZM-bl indicator cell line (obtained from the NIH AIDS reagents program, cat. Nr 8129 (www.aidsreagent.org) and maintained at 37°C and 5% CO2 in Dulbecco’s modified Eagle’s medium (DMEM) medium containing 10% fetal bovine serum, 50 μg/mL penicillin, and 50 μg/mL streptomycin. The HIV-1 laboratory strains NL(AD8) (NIH AIDS reagents program, cat.nr 11346), NL4.3 (NIH AIDS reagents program, cat. Nr. 114) were titrated as previously reported. Briefly, serial 5-fold dilutions of each virus were made in quadruplicate wells in 96-well culture plates, in a total volume of 100 μL of growth medium (DMEM), for a total of 8 dilution steps. Freshly trypsinized cells (20,000 cells in 100 μL of growth medium containing 75 μg/mL DEAE-dextran) were added to each well, and the plates were incubated at 37°C in a humidified 5% CO2-95% air environment. After 48 h of incubation, the medium was removed and viral infection was quantified using a β-galactosidase (CPRG) assay (Roche). Twenty thousand TZM-bl cells/well were seeded in 96-well plates in complete DMEM supplemented with 30 μg/mL DEAE-dextran (Sigma-Aldrich). Three hundred times the 50% tissue culture infective dose (TCID50)/mL of each strain was pretreated for 1 h at 37°C with six serial dilutions ([…] to 3.2 nM) of each compound and then added to the cells, as previously described. Vehicle (0.1% dimethyl sulfoxide [DMSO])-treated cells served as a negative control. […] After 2 days, viral infection was quantified using a CPRG assay (Roche). The inhibitory curves were fitted by nonlinear regression, allowing for the calculation of the 50% inhibitory concentration (IC50) using the Prism software. To evaluate the cell toxicity of the compounds, the metabolic XTT [2,3-bis-(2-methoxy-4-nitro-5-sulfophenyl)-2H-tetrazolium-5-carboxanilide] test (Sigma-Aldrich) was performed according to the manufacturer’s instructions.

[3] = Aqueous (thermodynamic) solubility; type: physicochemical; settings: thermodynamic from solid, water, 20°C, read-out: Water Solub.
Procedure: Each solid compound (1 mg) was added to 1 mL of water. Each sample was mixed at 20°C, in a shaker water bath for 24 h. The resulting suspension was filtered through a 0.45 μm nylon filter (Acrodisc). The concentration of solubilized compounds weres determined by UV/LC-MS (performed in triplicate) by comparison with the appropriate calibration curve that was obtained from samples of the compound dissolved in methanol at different concentrations.

[4] = biological target: human serum albumin (HSA) (Homo sapiens, UniProt P02768); assay: Albumin binding fluorimetric assay, HSA; settings: fluorescence quenching, 10 μM HSA
Chain of human serum albumin (HSA) (P02768 25-609): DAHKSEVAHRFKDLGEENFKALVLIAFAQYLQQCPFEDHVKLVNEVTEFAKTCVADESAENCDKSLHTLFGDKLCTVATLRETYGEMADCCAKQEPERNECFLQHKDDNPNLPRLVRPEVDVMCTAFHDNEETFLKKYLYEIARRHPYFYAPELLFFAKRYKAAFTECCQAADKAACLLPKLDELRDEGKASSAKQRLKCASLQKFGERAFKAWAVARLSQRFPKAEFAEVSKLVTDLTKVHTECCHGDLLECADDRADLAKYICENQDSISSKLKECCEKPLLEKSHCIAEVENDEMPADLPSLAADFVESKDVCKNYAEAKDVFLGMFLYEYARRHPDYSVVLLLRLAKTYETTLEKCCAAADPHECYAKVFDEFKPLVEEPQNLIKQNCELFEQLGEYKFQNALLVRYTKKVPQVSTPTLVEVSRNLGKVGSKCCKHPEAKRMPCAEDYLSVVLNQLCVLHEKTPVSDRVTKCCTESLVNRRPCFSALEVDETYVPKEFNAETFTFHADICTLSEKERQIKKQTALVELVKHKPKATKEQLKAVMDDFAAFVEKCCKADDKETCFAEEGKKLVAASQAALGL
Procedure: The binding of each compounds to HSA (human serum albumin) and BSA (bovine serum albumin) were monitored by fluorescence spectroscopy in order to determine the dissociation constant (Kd). A quantitative analysis of the potential interaction was performed by fluorimetric analysis using 96 multiwell plates: in each well a fixed concentration of HSA or BSA (10μM in phosphate buffer 1 mM), was added with different amounts of tested compound (0.1μM to 500μM by stock solutions in DMSO). […] The obtained fluorescence quenching percentages were plotted against drug concentrations and the relative Kd values were obtained using GraphPad software (version 6.0).

[5] = system: HIV-1 AD8 (CCR5-tropic strain); assay: Antiviral activity on TZM-bl cells infected with HIV-1 AD8 (CPRG assay); type: cell-based; settings: Human immunodeficiency virus 1, TZM-bl cells
Procedure: as §1

[6] = Vero cell viability (MTS assay); type: cell-based; settings: African green monkey
Procedure: African green monkey fibroblastoid kidney cells (Vero, ATCC CCL-81) were grown as monolayers in Eagle's minimal essential medium (MEM) (Gibco/BRL, Gaithersburg, MD) supplemented with 10% heat inactivated fetal calf serum (FCS) and 1% antibiotic-antimycotic solution (Zell Shield, Minerva Biolabs GmbH, Berlin, Germany).
Cell viability was measured using the MTS [3-(4,5-dimethylthiazol-2-yl)-5-(3-carboxymethoxyphenyl)-2-(4-sulfophenyl)-2H-tetrazolium] assay. Cell cultures were seeded in 96-well plates were incubated with different concentrations of compounds in triplicate under the same experimental conditions described for the antiviral assays. Cell viability was determined using the CellTiter 96 Proliferation Assay Kit (Promega, Madison, WI, USA) according to the manufacturer's instructions. Absorbances were measured using a Microplate Reader (Model 680, BIORAD) at 490 nm. The effect on cell viability at different concentrations of the compound was expressed as a percentage, by comparing absorbances of treated cells with those of cells incubated with culture medium and equal volumes of vehicle.

[7] = Metabolic stability in human liver microsomes; type: in vitro ADME; settings: HLM, 37°C, 1 h; percentage of compound not metabolized
Procedure: The incubation mixture (total volume of 500 μL) was constituted by the following components: HLM (0.2 mg/mL), a NADPH regenerating system (NADPH 0.2 mM, […] 1 mM, D-glucose-6-phosphate 4 mM, 4 unit/mL glucose-6-phosphate dehydrogenase and MgCl2 48 mM), 50 μM of each compound in DMSO and phosphate buffer (pH 7.4, 25 mM, up to a final volume of 500 μL). The mixture was incubated at 37°C for 1 h. The reaction was cooled down and quenched with acetonitrile (1.0 mL). After centrifugation (4000 rpm, 10 min), the supernatant was taken, dried under nitrogen flow, suspended in 100 μL of methanol and analyzed by UV/LC-MS to determine the percentage of compound that was not metabolized.

[8] = pre-incubation in complete medium containing fetal bovine serum (FBS), read-out: AD8 EC50 a
[9] = pre-incubation with virus without serum, read-out: AD8 EC50
[10] = Vero cells, HSV-2 assay conditions, read-out: Citotoxicity (Vero cells) CC50

In the case of `O=C(O)c1ccc(-c2ccc(/C=C3\SC(=S)N(CCCc4ccccc4)C3=O)o2)cc1O` [Compound 9c, (Z)-2-hydroxy-4-(5-((4-oxo-3-(3-phenylpropyl)-2-thioxothiazolidin-5-ylidene)methyl)furan-2-yl)benzoic acid], the Papp [1] is reported as 1.23 1·10^-6cm/sec, the CC50 [2] is reported as greater than 20000 nM and the solubility at 24 h [3] is reported as 0.3 ± 0.07 µg/mL (≈ 0.644 µM). The Kd [4] was 1190 ± 100 nM, the EC50 [5, 8] was 378 ± 15 nM and the EC50 [5, 9] was 27.5 ± 4 nM. For the same compound, the CC50 [6, 10] was 205000 ± 30100 nM and the “Metabolic Stability” value [7] was greater than 90%.

In the case of `Cc1ccc(CCN2C(=O)/C(=C/c3ccc(-c4ccc(C(=O)O)c(O)c4)o3)SC2=S)cc1` [Compound 9b, (Z)-2-hydroxy-4-(5-((3-(4-methylphenethyl)-4-oxo-2-thioxothiazolidin-5-ylidene)methyl)furan-2-yl)benzoic acid], the Papp [1] is reported as 2.32 1·10^-6cm/sec, the CC50 [2] is reported as greater than 20000 nM and the solubility at 24 h [3] is reported as 0.1 ± 0.08 µg/mL (≈ 0.215 µM). For the same compound, the Kd [4] was 1570 ± 200 nM, the EC50 [5, 8] was 404 ± 20 nM and the EC50 [5, 9] was 46.7 ± 9 nM. For the same compound, the “Metabolic Stability” value [7] was greater than 90%.

In the case of `O=C(O)c1ccc(-c2ccc(/C=C3\SC(=S)N(Cc4ccc(Cl)cc4)C3=O)o2)cc1O` [Compound 2], the Papp [1] is reported as 1.26 1·10^-6cm/sec, the CC50 [2] is reported as greater than 20000 nM and the solubility at 24 h [3] is reported as 0.52 ± 0.13 µg/mL (≈ 1.1 µM). For the same compound, the Kd [4] was 960 ± 100 nM, the EC50 [5, 8] was 650 nM and the EC50 [5, 9] was 6.9 nM. It also gave a CC50 ([6]; Vero cell CC50 (HSV-2 acyclovir resistant rows)) of 112000 ± 11600 nM, a CC50 ([6]; Vero cells, HSV-1 assay conditions, read-out: Vero cell CC50 (HSV-1)) of 98000 ± 23100 nM and a CC50 [6, 10] of 112000 ± 11600 nM. For the same compound, the “Metabolic Stability” value [7] was greater than 90%.

In the case of `O=C(O)c1ccc(-c2ccc(/C=C3\SC(=S)N(c4ccc(F)c(Cl)c4)C3=O)o2)cc1O` [Compound 9e, (Z)-4-(5-((3-(3-chloro-4-fluorophenyl)-4-oxo-2-thioxothiazolidin-5-ylidene)methyl)furan-2-yl)-2-hydroxybenzoic acid], the Papp [1] is reported as 0.92 1·10^-6cm/sec, the CC50 [2] is reported as greater than 20000 nM and the solubility at 24 h [3] is reported as 0.72 ± 0.12 µg/mL (≈ 1.51 µM). The Kd [4] was 2190 ± 1000 nM, the EC50 [5, 8] was 400 ± 14 nM and the EC50 [5, 9] was 26 ± 6 nM. For the same compound, the CC50 [6, 10] was greater than 100000 nM and the “Metabolic Stability” value [7] was greater than 90%.

For `O=C(O)c1ccc(-c2ccc(/C=C3\SC(=S)N(Cc4ccc(F)cc4)C3=O)o2)cc1O` [Compound 1], the Papp [1] was 1.28 1·10^-6cm/sec, the CC50 [2] was greater than 20000 nM and the solubility at 24 h [3] was 0.88 ± 0.1 µg/mL (≈ 1.93 µM). The Kd [4] was 630 ± 100 nM, the EC50 [5, 8] was 1395 ± 10 nM and the EC50 [5, 9] was 32.3 ± 3 nM. For the same compound, the CC50 [6, 10] was 224000 ± 78500 nM and the “Metabolic Stability” value [7] was greater than 90%.

In the case of `CCc1ccc(CCN2C(=O)/C(=C/c3ccc(-c4ccc(C(=O)O)c(O)c4)o3)SC2=S)cc1` [Compound 9d, (Z)-4-(5-((3-(4-ethylphenethyl)-4-oxo-2-thioxothiazolidin-5-ylidene)methyl)furan-2-yl)-2-hydroxybenzoic acid], the Papp [1] is reported as 1.50 1·10^-6cm/sec, the CC50 [2] is reported as 12300 nM and the solubility at 24 h [3] is reported as 0.25 ± 0.09 µg/mL (≈ 0.521 µM). For the same compound, the Kd [4] was 1090 ± 900 nM, the EC50 [5, 8] was 186 ± 9 nM and the EC50 [5, 9] was 36 ± 3 nM. For the same compound, the CC50 [6, 10] was 16900 ± 4310 nM and the “Metabolic Stability” value [7] was greater than 90%.

In the case of `O=C(O)c1ccc(-c2ccc(/C=C3\SC(=S)N(CCc4ccc(F)cc4)C3=O)o2)cc1O` [Compound 9a, (Z)-4-(5-((3-(4-fluorophenethyl)-4-oxo-2-thioxothiazolidin-5-ylidene)methyl)furan-2-yl)-2-hydroxybenzoic acid], the Papp [1] is reported as 0.4 1·10^-6cm/sec, the CC50 [2] is reported as 2200 nM and the solubility at 24 h [3] is reported as 0.54 ± 0.08 µg/mL (≈ 1.15 µM). The Kd [4] was 1510 ± 200 nM, the EC50 [5, 8] was 116 ± 24 nM and the EC50 [5, 9] was 7.5 nM. The CC50 [6, 10] was greater than 300000 nM and the “Metabolic Stability” value [7] was greater than 90%.

For `O=C(O)c1ccc(-c2ccc(/C=C3\SC(=S)N(Cc4ccc(Cl)c(F)c4)C3=O)o2)cc1O` [Compound 9f, (Z)-4-(5-((3-(4-chloro-3-fluorobenzyl)-4-oxo-2-thioxothiazolidin-5-ylidene)methyl)furan-2-yl)-2-hydroxybenzoic acid], the Papp [1] was 0.87 1·10^-6cm/sec, the CC50 [2] was greater than 20000 nM and the solubility at 24 h [3] was 0.73 ± 0.14 µg/mL (≈ 1.49 µM). The Kd [4] was 2230 ± 1200 nM, the EC50 [5, 8] was 560 ± 10 nM and the EC50 [5, 9] was 20 ± 4 nM. For the same compound, the CC50 [6, 10] was 7870 ± 2980 nM and the “Metabolic Stability” value [7] was greater than 90%.
